Calls of active or inactive are those of the source.
Experiments:
[1] = target: T1, Estrogen receptor (Homo sapiens, UniProt P03372);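 also: potency for inhibiting coactivator peptide recruitment to the receptor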
T1 sequence (P03372 whole entry): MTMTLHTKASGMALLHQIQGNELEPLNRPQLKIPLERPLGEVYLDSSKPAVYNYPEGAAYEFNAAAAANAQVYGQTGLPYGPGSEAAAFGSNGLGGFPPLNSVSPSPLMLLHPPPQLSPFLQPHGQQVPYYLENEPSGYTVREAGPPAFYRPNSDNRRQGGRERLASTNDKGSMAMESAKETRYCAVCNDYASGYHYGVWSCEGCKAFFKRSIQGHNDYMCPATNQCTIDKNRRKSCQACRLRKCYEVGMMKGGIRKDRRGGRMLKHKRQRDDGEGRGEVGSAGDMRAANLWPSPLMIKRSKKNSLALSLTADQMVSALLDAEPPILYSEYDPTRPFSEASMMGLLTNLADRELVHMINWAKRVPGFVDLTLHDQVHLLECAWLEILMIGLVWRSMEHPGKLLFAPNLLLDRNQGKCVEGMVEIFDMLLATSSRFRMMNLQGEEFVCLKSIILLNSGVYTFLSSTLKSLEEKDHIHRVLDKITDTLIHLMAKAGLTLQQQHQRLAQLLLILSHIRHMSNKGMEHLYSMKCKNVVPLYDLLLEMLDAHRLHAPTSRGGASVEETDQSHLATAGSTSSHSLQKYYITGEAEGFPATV

[2] = HEK-293T cell viability reduction – luminescence, B-cell screen hits, cytotoxicity control for BCR NF-kB inhibitor project, dose response (AID 489021); type: functional, cell-based;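 also: HEK-293T cells carrying an NF-kB luciferase reporter; cells exposed to compound for about 14 hours before viability readout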
[3] = target: Genome polyprotein (dengue virus type 2, UniProt P29990); test: flavivirus cap methylation enzyme inhibition – biochemical, confirmation dose response, primary screen (AID 588689); type: functional
Chain of Genome polyprotein (P29990 2492-3391 limits assumed): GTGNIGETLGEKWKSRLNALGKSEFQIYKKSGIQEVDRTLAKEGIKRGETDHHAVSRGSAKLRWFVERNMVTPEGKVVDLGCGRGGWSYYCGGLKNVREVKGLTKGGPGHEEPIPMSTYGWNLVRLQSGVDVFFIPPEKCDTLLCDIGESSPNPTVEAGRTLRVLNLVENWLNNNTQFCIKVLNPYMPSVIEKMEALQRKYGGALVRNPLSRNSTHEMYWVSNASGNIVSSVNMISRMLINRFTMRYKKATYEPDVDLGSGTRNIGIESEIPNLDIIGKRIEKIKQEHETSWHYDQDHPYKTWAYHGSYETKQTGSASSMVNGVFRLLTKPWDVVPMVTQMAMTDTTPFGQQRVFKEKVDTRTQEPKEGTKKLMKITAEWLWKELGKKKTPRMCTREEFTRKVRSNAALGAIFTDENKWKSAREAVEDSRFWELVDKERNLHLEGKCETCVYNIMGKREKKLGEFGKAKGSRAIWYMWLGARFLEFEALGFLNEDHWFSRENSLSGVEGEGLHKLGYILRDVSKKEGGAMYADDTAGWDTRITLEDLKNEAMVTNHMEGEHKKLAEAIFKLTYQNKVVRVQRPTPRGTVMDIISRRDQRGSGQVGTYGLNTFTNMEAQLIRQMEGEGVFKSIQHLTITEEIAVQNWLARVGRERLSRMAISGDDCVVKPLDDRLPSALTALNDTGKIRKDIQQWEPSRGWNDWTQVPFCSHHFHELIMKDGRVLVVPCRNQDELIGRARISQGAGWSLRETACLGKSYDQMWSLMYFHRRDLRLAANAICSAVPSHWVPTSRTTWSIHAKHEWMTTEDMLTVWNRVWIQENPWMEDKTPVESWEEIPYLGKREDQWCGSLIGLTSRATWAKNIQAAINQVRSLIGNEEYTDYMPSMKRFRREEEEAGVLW

[4] = target: Prothrombin (Bos taurus, UniProt P00735); test: thrombin protease inhibitors – biochemical, fluorescence polarization, uHTS hits, dose response (AID 602369); type: functional
[5] = loss of viability in HepG2 cells – cell-based, CellTiter-Glo, cherry-picked, cytotoxicity control for Shn3 inhibitor project, dose response (AID 624134); type: functional
[6] = reduction of Shn3 3'UTR-driven luciferase in osteoblasts – cell-based, Clone20 osteoblasts, firefly luciferase, cherry-picked, dose response (AID 624132); type: functional;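 also: firefly luciferase luminescence from reporter carrying the Shn3 3'UTR in osteoblasts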
[7] = system: INS1; test: INS-1E survival protection against cytokine death – cell-based, luminescence, retest, dose response (AID 449756); type: functional; settings: Rattus norvegicus;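 also: cell death triggered by IL-1 beta plus TNF-alpha plus IFN-gamma mixture; protective hits raise ATP signal compared with cytokine alone wells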
[8] = target: 26S proteasome non-ATPase regulatory subunit 14 (Homo sapiens, UniProt O00487); test: inhibition of proteasome subunit RPN11 – biochemical, fluorescence polarization, uHTS hits, confirmation (AID 602368); type: functional
Chain of 26S proteasome non-ATPase regulatory subunit 14 (O00487 whole entry): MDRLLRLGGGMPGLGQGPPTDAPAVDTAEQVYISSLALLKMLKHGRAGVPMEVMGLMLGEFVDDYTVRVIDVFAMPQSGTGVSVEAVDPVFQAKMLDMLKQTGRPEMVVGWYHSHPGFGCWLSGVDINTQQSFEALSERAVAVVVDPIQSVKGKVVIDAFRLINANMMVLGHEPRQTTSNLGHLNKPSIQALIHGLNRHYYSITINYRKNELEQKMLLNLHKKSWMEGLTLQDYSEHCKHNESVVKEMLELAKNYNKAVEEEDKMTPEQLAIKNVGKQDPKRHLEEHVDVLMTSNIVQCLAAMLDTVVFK

[9] = non-specific 3'UTR reporter inhibition in Clone20-Shn3RL – cell-based, Renilla luciferase, cherry-picked, counter-screen for Shn3 inhibitor project, dose response (AID 624133); type: functional
[10] = target: 72 kDa type IV collagenase (Homo sapiens, UniProt P08253); test: Dose Response validation of uHTS RPN11 inhibitor hits using a MMP-2 Fluorescence assay.; type: functional
Chain of 72 kDa type IV collagenase (P08253 whole entry): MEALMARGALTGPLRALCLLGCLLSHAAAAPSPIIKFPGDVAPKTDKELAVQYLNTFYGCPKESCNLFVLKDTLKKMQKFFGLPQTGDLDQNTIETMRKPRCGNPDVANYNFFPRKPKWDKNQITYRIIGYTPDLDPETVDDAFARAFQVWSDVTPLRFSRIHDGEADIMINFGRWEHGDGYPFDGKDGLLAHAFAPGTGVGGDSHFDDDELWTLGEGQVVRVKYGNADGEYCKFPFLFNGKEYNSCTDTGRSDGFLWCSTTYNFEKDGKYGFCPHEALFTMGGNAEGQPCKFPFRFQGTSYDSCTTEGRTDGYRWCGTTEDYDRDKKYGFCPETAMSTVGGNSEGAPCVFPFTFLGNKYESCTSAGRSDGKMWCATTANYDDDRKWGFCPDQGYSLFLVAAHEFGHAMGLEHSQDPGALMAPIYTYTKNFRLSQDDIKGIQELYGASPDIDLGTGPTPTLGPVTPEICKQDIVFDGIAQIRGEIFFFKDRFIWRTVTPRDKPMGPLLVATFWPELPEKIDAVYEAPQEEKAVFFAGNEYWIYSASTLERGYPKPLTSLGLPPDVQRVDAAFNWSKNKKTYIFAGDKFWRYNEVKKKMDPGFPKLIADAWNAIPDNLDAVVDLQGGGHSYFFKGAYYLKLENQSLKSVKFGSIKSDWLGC

[11] = target: Cytochrome P450 2C19 (Homo sapiens, UniProt P33261); test: Cytochrome panel assay with activity outcomes. Panel member name: p450-cyp2c19 Compounds with AC50 equal or less than 10 uM are considered active; type: functional; settings: read-out: AC50
Chain of Cytochrome P450 2C19 (P33261 whole entry): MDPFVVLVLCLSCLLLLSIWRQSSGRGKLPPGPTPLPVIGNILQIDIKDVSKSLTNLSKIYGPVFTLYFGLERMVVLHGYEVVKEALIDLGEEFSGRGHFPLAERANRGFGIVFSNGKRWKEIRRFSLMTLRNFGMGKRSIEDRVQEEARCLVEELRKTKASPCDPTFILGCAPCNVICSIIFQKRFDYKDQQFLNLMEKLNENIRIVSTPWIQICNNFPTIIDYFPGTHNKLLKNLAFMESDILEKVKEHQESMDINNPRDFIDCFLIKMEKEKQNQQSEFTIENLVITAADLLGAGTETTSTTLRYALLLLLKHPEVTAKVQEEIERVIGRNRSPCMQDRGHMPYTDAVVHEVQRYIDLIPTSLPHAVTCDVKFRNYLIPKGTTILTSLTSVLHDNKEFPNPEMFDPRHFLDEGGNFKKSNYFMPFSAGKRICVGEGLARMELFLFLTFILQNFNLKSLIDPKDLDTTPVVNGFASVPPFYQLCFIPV

[12] = target: Voltage-dependent T-type calcium channel subunit alpha-1H (Homo sapiens, UniProt O95180); type: functional;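 also: channel activity triggered by adding a high calcium stimulation buffer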
[13] = target: Cytochrome P450 2C9 (Homo sapiens, UniProt P11712)
Chain of Cytochrome P450 2C9 (P11712 whole entry): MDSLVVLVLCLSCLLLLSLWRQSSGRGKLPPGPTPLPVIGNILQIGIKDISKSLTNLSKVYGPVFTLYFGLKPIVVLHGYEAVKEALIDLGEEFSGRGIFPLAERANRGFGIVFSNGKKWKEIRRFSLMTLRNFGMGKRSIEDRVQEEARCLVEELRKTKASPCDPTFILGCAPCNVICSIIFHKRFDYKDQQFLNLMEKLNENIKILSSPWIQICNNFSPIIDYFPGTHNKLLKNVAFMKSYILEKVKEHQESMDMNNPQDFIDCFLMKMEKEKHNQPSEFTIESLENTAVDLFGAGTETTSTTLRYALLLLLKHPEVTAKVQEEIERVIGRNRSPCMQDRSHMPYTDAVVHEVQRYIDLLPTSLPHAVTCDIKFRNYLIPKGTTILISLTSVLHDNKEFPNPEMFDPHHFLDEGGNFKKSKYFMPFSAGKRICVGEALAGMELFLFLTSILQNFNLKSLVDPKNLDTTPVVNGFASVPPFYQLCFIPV

[14] = target: T2, Endoribonuclease toxin MazF (Escherichia coli K-12, UniProt P0AE70); test: activation of MazEF endoribonuclease cleavage – biochemical, fluorescence, single-stranded RNA substrate, uHTS hits, dose response (AID 588481); type: functional
T2 sequence (P0AE70 whole entry): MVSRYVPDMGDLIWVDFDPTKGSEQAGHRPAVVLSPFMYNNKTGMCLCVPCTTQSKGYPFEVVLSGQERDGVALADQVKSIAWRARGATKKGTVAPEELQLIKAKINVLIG

[15] = target: T2, Endoribonuclease toxin MazF; test: substrate-only fluorescence increase artefacts – biochemical, single-stranded RNase substrate, counter-screen for MazEF activator project, dose response (AID 588502); type: functional
[16] = target: T3, Cytochrome P450 1A2 (Homo sapiens, UniProt P05177);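 also: PubChem cytochrome P450 panel assay, CYP1A2 panel member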
T3 sequence (P05177 whole entry): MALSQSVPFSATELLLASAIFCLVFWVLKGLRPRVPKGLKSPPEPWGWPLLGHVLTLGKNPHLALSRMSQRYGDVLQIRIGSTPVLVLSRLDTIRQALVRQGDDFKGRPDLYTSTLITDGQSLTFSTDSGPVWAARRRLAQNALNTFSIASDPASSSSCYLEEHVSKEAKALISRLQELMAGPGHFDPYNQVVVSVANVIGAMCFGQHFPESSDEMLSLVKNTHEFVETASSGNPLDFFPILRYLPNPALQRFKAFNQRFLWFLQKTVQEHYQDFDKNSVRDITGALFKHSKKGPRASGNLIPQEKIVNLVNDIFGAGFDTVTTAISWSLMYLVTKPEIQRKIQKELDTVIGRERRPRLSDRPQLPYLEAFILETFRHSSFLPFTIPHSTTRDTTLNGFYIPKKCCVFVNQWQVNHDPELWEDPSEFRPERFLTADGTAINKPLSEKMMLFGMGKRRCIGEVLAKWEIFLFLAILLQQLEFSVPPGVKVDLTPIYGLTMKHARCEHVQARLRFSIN

[17] = target: T4, Corticotropin-releasing factor receptor 2/Corticotropin-releasing factor-binding protein (Homo sapiens, UniProt P24387+Q13324); test: Dose Response confirmation of uHTS hits for small molecule antagonists of the CRF-binding protein and CRF-R2 receptor complex.; type: functional; settings: read-out: IC50_Mean
T4 sequence (Q13324 whole entry): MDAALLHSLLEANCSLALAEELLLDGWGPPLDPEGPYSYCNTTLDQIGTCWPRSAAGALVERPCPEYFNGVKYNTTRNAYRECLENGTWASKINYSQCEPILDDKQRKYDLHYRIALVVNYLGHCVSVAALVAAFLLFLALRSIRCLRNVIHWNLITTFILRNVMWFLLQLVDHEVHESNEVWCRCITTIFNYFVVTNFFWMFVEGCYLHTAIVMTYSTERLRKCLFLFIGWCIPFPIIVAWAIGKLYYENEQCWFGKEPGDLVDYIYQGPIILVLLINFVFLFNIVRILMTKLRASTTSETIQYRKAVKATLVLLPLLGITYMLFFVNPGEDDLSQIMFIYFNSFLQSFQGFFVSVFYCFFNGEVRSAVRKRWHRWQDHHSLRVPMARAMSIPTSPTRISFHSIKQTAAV
T4 sequence (P24387 whole entry): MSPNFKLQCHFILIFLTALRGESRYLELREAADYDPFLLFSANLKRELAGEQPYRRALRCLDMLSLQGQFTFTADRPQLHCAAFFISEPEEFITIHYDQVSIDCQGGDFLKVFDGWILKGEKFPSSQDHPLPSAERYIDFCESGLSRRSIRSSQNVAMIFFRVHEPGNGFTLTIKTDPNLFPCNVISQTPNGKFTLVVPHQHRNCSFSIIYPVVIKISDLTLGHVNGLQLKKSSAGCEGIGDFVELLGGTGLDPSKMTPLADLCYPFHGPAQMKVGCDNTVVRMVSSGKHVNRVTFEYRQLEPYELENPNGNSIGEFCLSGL

[18] = blockers of CRF-binding protein–CRF-R2 complex – cell-based, uHTS hits, 384-well, dose response (AID 651639); type: functional, Homo sapiens; settings: read-out: IC50_Mean
[19] = target: T4, Corticotropin-releasing factor receptor 2/Corticotropin-releasing factor-binding protein; test: activators of CRF receptor 2 with binding protein – uHTS hits, confirmation (AID 602473); type: functional; settings: read-out: EC50_Mean
[20] = target: DNA dC->dU-editing enzyme APOBEC-3G (Homo sapiens, UniProt Q9HC16); test: Dose Response confirmation of small molecule APOBEC3G DNA Deaminase Inhibitors via a fluorescence-based single-stranded DNA deaminase assay. [Related pubchem assays (depositor defined):AID493012, AID493028]; type: functional
Chain of DNA dC->dU-editing enzyme APOBEC-3G (Q9HC16 whole entry): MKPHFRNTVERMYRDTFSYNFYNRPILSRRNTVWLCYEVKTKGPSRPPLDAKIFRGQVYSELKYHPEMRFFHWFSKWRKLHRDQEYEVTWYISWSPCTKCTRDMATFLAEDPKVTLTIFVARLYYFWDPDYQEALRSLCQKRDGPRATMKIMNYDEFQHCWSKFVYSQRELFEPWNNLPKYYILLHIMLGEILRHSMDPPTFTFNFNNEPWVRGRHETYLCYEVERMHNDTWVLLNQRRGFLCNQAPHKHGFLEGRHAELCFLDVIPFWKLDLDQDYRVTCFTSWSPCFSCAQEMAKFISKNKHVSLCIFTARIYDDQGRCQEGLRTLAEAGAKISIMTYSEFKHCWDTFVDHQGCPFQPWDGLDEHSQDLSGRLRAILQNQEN

[21] = system: BJ; test: BJ-TERT fibroblast viability loss – cell-based, RAS-independent, luminescence, dose response (AID 1933); type: functional; settings: Homo sapiens
[22] = system: BJ; test: cells; type: functional, cell-based; settings: Homo sapiens
[23] = target: T5, Ubiquitin-conjugating enzyme E2 N (Homo sapiens, UniProt P61088); type: functional;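 also: Dose-response confirmation in a TR-FRET assay detecting UBC13-driven polyubiquitin chain formation, inhibition measured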
T5 sequence (P61088 whole entry): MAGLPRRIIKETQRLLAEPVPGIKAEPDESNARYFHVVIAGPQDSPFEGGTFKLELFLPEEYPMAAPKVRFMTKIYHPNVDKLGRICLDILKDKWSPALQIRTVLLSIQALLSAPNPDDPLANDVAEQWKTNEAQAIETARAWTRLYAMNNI

[24] = target: Trypsin (Sus scrofa, UniProt P00761); test: trypsin protease activity blockade – biochemical, quenched peptide fluorescence, cherry-pick, selectivity assay for Rce1 protease inhibitor project, dose response (AID 488789)
Chain of Trypsin (P00761 whole entry): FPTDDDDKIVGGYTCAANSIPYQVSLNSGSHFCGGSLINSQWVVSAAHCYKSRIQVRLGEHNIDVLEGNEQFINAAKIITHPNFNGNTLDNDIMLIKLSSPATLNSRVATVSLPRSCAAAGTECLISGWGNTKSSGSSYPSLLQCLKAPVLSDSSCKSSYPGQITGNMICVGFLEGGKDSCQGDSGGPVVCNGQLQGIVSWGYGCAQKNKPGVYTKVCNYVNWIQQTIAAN

[25] = target: T6, CAAX prenyl protease 2 (Saccharomyces cerevisiae S288c, UniProt Q03530); type: biochemical
T6 sequence (Q03530 whole entry): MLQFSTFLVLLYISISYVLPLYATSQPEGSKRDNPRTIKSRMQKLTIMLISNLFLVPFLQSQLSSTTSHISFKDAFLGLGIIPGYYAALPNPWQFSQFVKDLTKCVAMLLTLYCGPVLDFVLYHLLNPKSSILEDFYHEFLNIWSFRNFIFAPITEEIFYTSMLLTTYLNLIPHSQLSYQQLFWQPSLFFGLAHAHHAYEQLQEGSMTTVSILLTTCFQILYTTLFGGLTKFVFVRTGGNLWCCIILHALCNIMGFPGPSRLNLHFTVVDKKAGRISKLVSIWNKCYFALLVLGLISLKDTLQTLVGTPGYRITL

[26] = THP-1 cell cytotoxicity, dose response, cytotoxicity control for non-replicating M. tuberculosis project (AID 489025); type: functional
[27] = target: Large T antigen (Simian virus 40, UniProt P03070); type: functional, Betapolyomavirus macacae;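 also: Confirmatory-stage PubChem screen for compounds that inhibit SV40 T antigen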
Chain of Large T antigen (P03070 whole entry): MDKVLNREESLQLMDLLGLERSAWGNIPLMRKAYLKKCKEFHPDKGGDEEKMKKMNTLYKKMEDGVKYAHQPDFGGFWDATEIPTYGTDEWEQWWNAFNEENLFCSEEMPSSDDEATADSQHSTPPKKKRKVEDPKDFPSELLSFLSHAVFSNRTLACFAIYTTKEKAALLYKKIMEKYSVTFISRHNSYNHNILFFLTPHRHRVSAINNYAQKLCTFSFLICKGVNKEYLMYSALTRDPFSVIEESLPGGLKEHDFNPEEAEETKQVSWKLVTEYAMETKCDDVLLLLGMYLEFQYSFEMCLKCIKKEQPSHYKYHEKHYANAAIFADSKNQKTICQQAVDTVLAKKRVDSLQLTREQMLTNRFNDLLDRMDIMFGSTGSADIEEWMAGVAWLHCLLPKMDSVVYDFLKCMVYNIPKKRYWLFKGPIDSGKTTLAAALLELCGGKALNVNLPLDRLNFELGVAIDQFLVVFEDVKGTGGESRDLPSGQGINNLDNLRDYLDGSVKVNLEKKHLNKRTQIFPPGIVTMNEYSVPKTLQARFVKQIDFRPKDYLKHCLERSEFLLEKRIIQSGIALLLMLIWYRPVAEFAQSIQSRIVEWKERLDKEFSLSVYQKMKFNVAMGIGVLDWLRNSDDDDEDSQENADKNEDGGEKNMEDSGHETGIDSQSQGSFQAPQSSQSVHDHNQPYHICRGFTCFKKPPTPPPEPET

[28] = target: Cytochrome P450 2D6 (Homo sapiens, UniProt P10635);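 also: CYP2D6 member of a cytochrome P450 panel assay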
Chain of Cytochrome P450 2D6 (P10635 whole entry): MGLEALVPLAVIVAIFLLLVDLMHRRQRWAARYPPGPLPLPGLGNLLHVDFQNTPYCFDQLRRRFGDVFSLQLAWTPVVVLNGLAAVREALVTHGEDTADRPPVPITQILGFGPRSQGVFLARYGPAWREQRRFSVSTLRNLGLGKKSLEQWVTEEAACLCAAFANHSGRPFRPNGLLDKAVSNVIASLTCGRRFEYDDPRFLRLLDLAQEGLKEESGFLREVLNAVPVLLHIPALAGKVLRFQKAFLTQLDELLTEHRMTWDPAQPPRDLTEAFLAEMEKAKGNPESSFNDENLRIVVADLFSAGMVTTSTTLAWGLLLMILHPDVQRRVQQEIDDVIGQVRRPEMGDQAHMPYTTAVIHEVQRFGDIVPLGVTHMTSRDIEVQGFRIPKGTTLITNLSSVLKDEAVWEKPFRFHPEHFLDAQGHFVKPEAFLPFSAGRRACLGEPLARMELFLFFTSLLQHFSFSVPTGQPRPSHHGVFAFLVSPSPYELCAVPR

COC(=O)c1ccc2c(=O)n(CCCCCC(=O)NCc3ccc4c(c3)OCO4)c(=O)[nH]c2c1
IC50 [1]: 14.8 µM (active)

Cc1c(CCO)c(O)oc2nnc(-c3ccccc3)c1-2
IC50 [2]: > 80 µM (inactive)

O=C1NN(c2ccccc2)C(=O)/C1=C\c1cccc(OC(=O)c2cccs2)c1
IC50 [3]: 21.2 µM (active)

O=[N+]([O-])c1ccc(Sc2cccc3cccnc23)c([N+](=O)[O-])c1
IC50 [4]: > 100 µM (inactive)
AC50 [5]: > 70 µM (inactive)
AC50 [6]: 1.71 µM (active)
AC50 [7]: 1.18 µM (active)
IC50 [8]: 27.6 µM (active)
AC50 [9]: 15.2 µM (active)
IC50 [10]: > 100 µM (inactive)

Cn1c(=O)cc(OCC(=O)N2CCC3(CC2)OCCO3)c2ccccc21
IC50 [2]: > 80 µM (inactive)

CC(NC(=O)CCSc1nc(-c2ccc3c(c2)OCO3)cc(C(F)(F)F)n1)c1ccccc1 (configuration not stated)
AC50 [11]: 0.398 µM (inconclusive)
IC50 [1]: > 50 µM (not active)
EC50 [12]: 7.03 µM (active)

Brc1ccc2cccnc2c1
AC50 [11]: 0.316 µM (inconclusive)
AC50 [13]: inconclusive

Cn1c(=O)n(C)c2cc(NC(=O)CSc3nnc(-c4ccccc4O)n3-c3ccccc3)ccc21
IC50 [2]: > 80 µM (inactive)

CCc1cccc(CC)c1NC(=O)COC(=O)/C(C#N)=C/c1ccc(OC)cc1
EC50 [14]: > 99 µM (inactive)
EC50 [15]: > 99 µM (inactive)

Cc1ccc(/C=C2/C(=O)NC(=O)N(CC3CCCO3)C2=O)s1 (configuration not stated)
IC50 [3]: > 100 µM (active)

C=CCNc1nc(-c2cccc(OC)c2O)nc2ccccc12
IC50 [1]: > 50 µM (not active)

CC1(C)CC2(CC(C)(C(=O)CSc3nc4ccccc4s3)OC2=O)C(=O)O1 (configuration not stated)
AC50 [11]: 8.91 µM (inconclusive)
AC50 [13]: inconclusive
AC50 [16]: 28.2 µM (inconclusive)

C#CCOc1c(Br)cc(/C=C2/C(=O)ON=C2C)cc1OC
IC50 [3]: > 100 µM (active)

O=C1NC(=O)N(C2CCCCC2)C(=O)/C1=C\C=C\Nc1ccccc1
EC50 [14]: > 99 µM (inactive)
EC50 [15]: 9.49 µM (active)

O=C(O)c1ccc2c(c1)C(=O)N(c1ccc(/C=C/C(=O)c3ccccc3)cc1)C2=O
IC50 [3]: 56.7 µM (active)

C=CCn1c(SCc2c(C)noc2C)nc2sc(C)c(C)c2c1=O
IC50 [17]: < 0.368 µM (active)
IC50 [18]: > 20 µM (inactive)
EC50 [19]: > 53 µM (inactive)

CCOc1ccc(C(S)=NC2CCCCC2)cc1OC
IC50 [20]: 64.7 µM (active)

CCOC(=O)c1c(NC(=O)Nc2ccc(C)cc2)sc2c1CCN(C)C2
EC50 [14]: > 99 µM (inactive)
EC50 [15]: > 99 µM (inactive)

Cc1ccc(Nc2nc(N)nc(-c3oc4ccccc4c3C)n2)cc1
EC50 [21]: < 0.12 µM (active)
EC50 [22]: 0.228 µM (active)

CC(C)n1ncc2c(C(=O)Nc3ccc(S(N)(=O)=O)cc3)cc(C3CC3)nc21
IC50 [4]: 73.6 µM (active)
IC50 [23]: > 20 µM (inactive)
IC50 [8]: 6.85 µM (active)
IC50 [10]: > 100 µM (inactive)

Cc1cc(OCC(=O)N2CCC(C(=O)O)CC2)c2c(C)cc(=O)oc2c1
AC50 [24]: 21.7 µM (active)
AC50 [25]: 15.6 µM (active)

CC1(c2nnc(-c3cccc(Cl)c3)o2)CC(c2cccc(Cl)c2)=NO1 (configuration not stated)
IC50 [2]: > 80 µM (inactive)

COc1cccc(NC(=S)NC(Cc2ccccc2)c2ccccc2)c1 (configuration not stated)
IC50 [17]: 3.35 µM (active)
IC50 [18]: 2.73 µM (active)
EC50 [19]: > 53 µM (inactive)

CC/C(=N/Nc1cccc(C)c1)c1cnnc(SC)n1
EC50 [14]: > 99 µM (inactive)
EC50 [15]: > 99 µM (inactive)

Cc1ccc(CO/N=C\Cc2snc(Sc3ncc(C(F)(F)F)cc3Cl)c2C#N)cc1
IC50 [4]: 54.2 µM (active)
IC50 [8]: 14.6 µM (active)
IC50 [10]: > 100 µM (inactive)

Cn1cccc1/C=N\NC(=O)C1COc2ccccc2O1 (configuration not stated)
CC50 [26]: > 40 µM (active)

N#C/C(=C\c1ccc(O)c(O)c1)C(=O)Nc1ccccc1
IC50 [4]: 67.9 µM (active)
IC50 [27]: 13.1 µM (active)
IC50 [8]: 1.3 µM (active)
AC50 [28]: 39.8 µM (inconclusive)
IC50 [10]: > 100 µM (inactive)

— ChEMBL document CHEMBL1201862, “PubChem BioAssay data set” (2004)
